# Source: ChEMBL document CHEMBL1201862, “PubChem BioAssay data set” (2004)
# Activity calls are given as the source filed them. Cut-off read from the data, not from the text of the source, for most assays here: actives have a measured IC50 and inactives only a lower limit.
# What was measured:
# [1] = target: Cytochrome P450 2D6 (Homo sapiens, UniProt P10635); experiment: qHTS Assay for Inhibitors and Substrates of Cytochrome P450 2D6. [Related pubchem assays: 410 ]; type: ADME; conditions: read-out: Potency
# [2] = target: Tumor necrosis factor (Homo sapiens, UniProt P01375); experiment: TNFa-triggered NF-kB activation inhibitors, SAR follow-up, cell-based, revised (AID 2337); type: functional
# [3] = target: T1, Nucleotide-binding oligomerization domain-containing protein 1 (Homo sapiens, UniProt Q9Y239); experiment: NOD1 signaling inhibitors, SAR follow-up, revised (AID 2333); type: functional
# T1 sequence (Q9Y239 whole entry): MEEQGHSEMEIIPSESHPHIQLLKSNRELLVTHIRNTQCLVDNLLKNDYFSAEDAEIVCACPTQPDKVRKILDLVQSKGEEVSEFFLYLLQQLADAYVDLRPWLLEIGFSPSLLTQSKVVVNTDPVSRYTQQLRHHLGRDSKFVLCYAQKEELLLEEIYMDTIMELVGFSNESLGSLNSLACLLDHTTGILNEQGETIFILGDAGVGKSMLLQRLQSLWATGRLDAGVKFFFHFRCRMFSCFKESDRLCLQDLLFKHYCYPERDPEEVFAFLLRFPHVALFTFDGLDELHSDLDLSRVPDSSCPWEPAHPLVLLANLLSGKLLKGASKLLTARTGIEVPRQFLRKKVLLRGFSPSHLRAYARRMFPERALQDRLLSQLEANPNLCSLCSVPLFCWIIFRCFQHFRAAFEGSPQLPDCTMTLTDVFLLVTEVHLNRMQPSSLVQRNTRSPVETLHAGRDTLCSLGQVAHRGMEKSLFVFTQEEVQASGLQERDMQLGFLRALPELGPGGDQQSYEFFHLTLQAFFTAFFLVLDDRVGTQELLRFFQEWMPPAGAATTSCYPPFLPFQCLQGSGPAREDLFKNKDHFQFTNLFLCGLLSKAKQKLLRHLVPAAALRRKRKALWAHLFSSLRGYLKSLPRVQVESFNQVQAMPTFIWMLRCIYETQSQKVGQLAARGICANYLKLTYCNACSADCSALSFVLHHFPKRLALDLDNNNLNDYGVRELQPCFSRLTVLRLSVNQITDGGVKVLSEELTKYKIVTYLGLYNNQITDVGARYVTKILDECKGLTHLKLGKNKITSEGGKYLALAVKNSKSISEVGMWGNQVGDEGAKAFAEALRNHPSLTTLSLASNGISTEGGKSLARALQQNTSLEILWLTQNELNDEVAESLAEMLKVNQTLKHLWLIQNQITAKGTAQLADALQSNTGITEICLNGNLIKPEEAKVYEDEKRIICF
# [4] = target: Nucleotide-binding oligomerization domain-containing protein 2 (Homo sapiens, UniProt Q9HC29); experiment: PubChem AID 2334; type: functional
# [5] = system: HEK293; experiment: cells; conditions: Homo sapiens;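 note: cells exposed to compound for 14 hours overnight before viability readout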
# [6] = target: T2, Alkaline phosphatase, tissue-nonspecific isozyme (Homo sapiens, UniProt P05186)
# T2 sequence (P05186 whole entry): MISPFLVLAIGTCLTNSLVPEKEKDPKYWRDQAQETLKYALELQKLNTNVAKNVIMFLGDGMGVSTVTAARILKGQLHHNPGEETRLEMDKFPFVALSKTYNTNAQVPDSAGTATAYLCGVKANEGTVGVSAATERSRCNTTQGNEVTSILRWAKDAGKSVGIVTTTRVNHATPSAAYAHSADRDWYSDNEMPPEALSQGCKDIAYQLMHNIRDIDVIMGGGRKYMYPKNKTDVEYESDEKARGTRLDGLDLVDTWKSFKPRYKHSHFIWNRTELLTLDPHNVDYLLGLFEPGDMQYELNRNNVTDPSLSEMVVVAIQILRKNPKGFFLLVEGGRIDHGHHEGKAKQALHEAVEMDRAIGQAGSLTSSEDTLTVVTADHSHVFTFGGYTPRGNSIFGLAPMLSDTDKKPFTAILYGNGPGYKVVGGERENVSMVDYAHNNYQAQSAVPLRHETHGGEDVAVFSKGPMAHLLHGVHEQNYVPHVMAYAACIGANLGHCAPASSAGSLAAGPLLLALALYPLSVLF
# [7] = target: Dual specificity protein phosphatase 3 (Homo sapiens, UniProt P51452); experiment: VHR1 inhibitor Ki determination, SAR follow-up, biochemical, colorimetric (AID 2004)
# Chain of Dual specificity protein phosphatase 3 (P51452 whole entry): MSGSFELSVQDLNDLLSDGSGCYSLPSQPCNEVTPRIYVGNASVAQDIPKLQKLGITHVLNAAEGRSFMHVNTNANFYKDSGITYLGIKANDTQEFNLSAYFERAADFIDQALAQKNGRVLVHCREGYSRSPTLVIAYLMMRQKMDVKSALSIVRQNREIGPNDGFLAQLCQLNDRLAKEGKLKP
# Chain of Tumor necrosis factor (P01375 whole entry, the tested form may be a part): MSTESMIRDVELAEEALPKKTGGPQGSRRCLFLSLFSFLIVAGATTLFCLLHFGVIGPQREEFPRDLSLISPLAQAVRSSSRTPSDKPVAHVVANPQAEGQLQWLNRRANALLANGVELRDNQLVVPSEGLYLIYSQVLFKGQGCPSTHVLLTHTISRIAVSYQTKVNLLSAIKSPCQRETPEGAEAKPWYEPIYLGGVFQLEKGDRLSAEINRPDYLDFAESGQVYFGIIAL
# Chain of Cytochrome P450 2D6 (P10635 whole entry): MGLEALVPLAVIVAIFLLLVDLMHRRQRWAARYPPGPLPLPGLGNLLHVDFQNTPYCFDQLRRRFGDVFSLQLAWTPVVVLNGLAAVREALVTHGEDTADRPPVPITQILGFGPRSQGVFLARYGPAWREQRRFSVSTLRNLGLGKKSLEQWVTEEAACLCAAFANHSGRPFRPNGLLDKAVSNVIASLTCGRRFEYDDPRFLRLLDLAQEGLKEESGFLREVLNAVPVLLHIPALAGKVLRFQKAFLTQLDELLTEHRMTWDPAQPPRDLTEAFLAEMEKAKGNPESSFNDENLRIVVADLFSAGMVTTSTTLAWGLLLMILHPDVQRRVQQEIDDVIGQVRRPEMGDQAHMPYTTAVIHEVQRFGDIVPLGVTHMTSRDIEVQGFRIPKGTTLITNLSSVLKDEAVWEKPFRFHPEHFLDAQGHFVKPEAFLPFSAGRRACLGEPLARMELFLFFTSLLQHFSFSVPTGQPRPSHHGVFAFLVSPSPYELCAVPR
# Chain of Nucleotide-binding oligomerization domain-containing protein 2 (Q9HC29 whole entry, the tested form may be a part): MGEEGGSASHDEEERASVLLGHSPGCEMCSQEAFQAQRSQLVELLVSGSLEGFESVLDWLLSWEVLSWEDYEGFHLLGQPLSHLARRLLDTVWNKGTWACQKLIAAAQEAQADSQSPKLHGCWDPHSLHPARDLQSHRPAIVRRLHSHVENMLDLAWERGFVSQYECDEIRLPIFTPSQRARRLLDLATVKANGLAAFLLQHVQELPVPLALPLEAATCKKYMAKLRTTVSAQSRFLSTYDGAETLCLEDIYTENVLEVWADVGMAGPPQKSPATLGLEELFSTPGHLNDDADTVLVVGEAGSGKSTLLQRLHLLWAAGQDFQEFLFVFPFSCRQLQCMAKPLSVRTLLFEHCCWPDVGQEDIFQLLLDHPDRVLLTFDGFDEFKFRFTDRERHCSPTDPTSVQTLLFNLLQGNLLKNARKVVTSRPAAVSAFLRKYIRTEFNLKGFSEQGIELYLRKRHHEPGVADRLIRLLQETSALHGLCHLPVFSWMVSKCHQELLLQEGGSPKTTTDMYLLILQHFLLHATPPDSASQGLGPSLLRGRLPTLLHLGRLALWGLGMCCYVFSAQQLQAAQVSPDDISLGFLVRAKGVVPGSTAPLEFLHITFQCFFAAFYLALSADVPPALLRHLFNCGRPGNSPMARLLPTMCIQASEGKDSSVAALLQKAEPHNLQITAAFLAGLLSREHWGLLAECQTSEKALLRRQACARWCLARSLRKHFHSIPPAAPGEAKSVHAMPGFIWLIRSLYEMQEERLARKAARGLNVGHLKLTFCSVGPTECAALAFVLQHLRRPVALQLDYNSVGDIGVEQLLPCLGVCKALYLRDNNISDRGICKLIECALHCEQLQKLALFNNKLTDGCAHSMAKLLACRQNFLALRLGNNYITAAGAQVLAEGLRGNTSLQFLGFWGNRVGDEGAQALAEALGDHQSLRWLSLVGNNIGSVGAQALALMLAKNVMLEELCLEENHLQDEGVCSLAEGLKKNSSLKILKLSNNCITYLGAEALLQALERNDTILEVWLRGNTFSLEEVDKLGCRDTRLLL
structure (smiles),measurement,setting,value
CCCCc1nc2c(c3c1CC(C)OC3)CN(CCC(C)C)CC2 (configuration not stated),AC50,[1],3.98 µM (inconclusive)
CCCCNCC(=O)Nc1sc2c(c1C(=O)O)CCCC2,IC50,[2],> 20 µM (inactive)
same,IC50,[3],> 20 µM (inactive)
same,IC50,[4],> 20 µM (inactive)
same,IC50,[5],> 20 µM (inactive)
Cn1c(=O)c2c(nc(N/N=C/c3cccs3)n2Cc2ccc(Br)cc2)n(C)c1=O,EC50,[6],> 100 µM (not active)
CCOC(=O)c1c(N)sc2c1CCN(Cc1ccccc1)C2 [TINORIDINE],Ki,[7],20.5 µM (inactive)
